Experimental data: the supplement of paper PMC10331698
± gives the standard deviation of the averaged measurements.

How the values were obtained:
Experiment in all cases: level (log10 ratio to DMSO vehicle control); higher = higher biomarker level / cell amount than vehicle control
[1] = compound: OCC(F)(F)C(F)(F)C(F)(F)C(F)(F)C(F)(F)C(F)(F)CO [1H,1H,8H,8H-Perfluorooctane-1,8-diol] (in DMSO)
Procedure: (§1)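 BioMAP Diversity Plus panel of 12 human primary cell co-culture systems (3C, 4H, LPS, SAg, BT, BF4T, BE3C, CASM3C, HDF3CGF, KF3CT, MyoF, Mphg). Compounds were added 1 h before stimulation and left for 24 h (MyoF 48 h; BT 72 h for soluble read-outs or 6 d for IgG). Biomarkers were read by ELISA, cytotoxicity by SRB, PBMC viability and proliferation by Alamar Blue. Each well value was divided by the mean of 8 DMSO control wells on the same plate and log10 transformed; duplicate blinded samples were tested at 4 concentrations.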

[2] = compound: C=C(C)C(=O)OCCC(F)(F)C(F)(F)C(F)(F)C(F)(F)C(F)(F)C(F)(F)C(F)(F)C(F)(F)F [8:2 Fluorotelomer methacrylate] (in DMSO)
Procedure: as §1

[3] = compound: NS(=O)(=O)C(F)(F)C(F)(F)C(F)(F)C(F)(F)C(F)(F)C(F)(F)C(F)(F)C(F)(F)F [Perfluorooctanesulfonamide] (in DMSO)
Procedure: as §1

[4] = compound: O=C(O)C(F)(OC(F)(F)C(F)(OC(F)(F)C(F)(OC(F)(F)C(F)(F)C(F)(F)F)C(F)(F)F)C(F)(F)F)C(F)(F)F [Perfluoro-(2,5,8-trimethyl-3,6,9-trioxadodecanoic)acid] (in DMSO)
Procedure: as §1

[5] = compound: O=C(O)C(F)(F)C(F)(F)C(F)(F)OC(F)(F)F [Perfluoro(4-methoxybutanoic) acid] (in DMSO)
Procedure: as §1

[6] = compound: OCC(F)(F)C(F)(F)C(F)(F)C(F)F [1H,1H,5H-Perfluoropentanol] (in DMSO)
Procedure: as §1

[7] = compound: O=C(O)C(F)(F)C(F)(F)C(F)(F)C(F)(F)C(F)(F)C(F)(F)C(F)(F)C(F)(F)F [Perfluorononanoic acid] (in DMSO)
Procedure: as §1

[8] = compound: O=C(O)C(F)(F)OC(F)(F)C(F)(F)OC(F)(F)C(F)(F)OC(F)(F)C(F)(F)C(F)(F)C(F)(F)F [Perfluoro-3,6,9-trioxatridecanoic acid] (in DMSO); details: 6700 nM
Procedure: as §1

Test System | level (log10) ([1]; 6700 nM) | level (log10) ([1]; 20000 nM) | level (log10) ([1]; 60000 nM) | level (log10) ([2]; 6700 nM) | level (log10) ([2]; 20000 nM) | level (log10) ([3]; 6700 nM) | level (log10) ([3]; 20000 nM) | level (log10) ([4]; 1100 nM) | level (log10) ([4]; 3300 nM) | level (log10) ([4]; 10000 nM) | level (log10) ([5]; 6700 nM) | level (log10) ([5]; 20000 nM) | level (log10) ([5]; 60000 nM) | level (log10) ([6]; 6700 nM) | level (log10) ([6]; 20000 nM) | level (log10) ([6]; 60000 nM) | level (log10) ([7]; 6700 nM) | level (log10) ([7]; 20000 nM) | level (log10) [8]
HDF3CGF:CCL2/MCP-1 | -0.012 | -0.0175 ± 0.015 | -0.0185 ± 0.016 | -0.0095 ± 0.016 | -0.012 ± 0.023 | -0.0105 ± 0.0064 | -0.567 ± 0.14 | -0.0035 ± 0.016 | -0.0365 ± 0.005 | -0.01 ± 0.0042 | 0.0035 ± 0.035 | 0.012 ± 0.018 | 0.019 ± 0.064 | -0.046 ± 0.027 | -0.014 ± 0.068 | -0.0225 ± 0.047 | 0.0235 ± 0.074 | -0.056 ± 0.055 | -0.274 ± 0.013
HDF3CGF:CD54/ICAM-1 | -0.01 ± 0.0099 | 0.009 ± 0.0099 | 0.019 ± 0.0014 | 0.0035 ± 0.021 | 0.0055 ± 0.013 | -0.021 ± 0.0042 | -0.88 ± 0.26 | -0.001 ± 0.0057 | -0.0015 ± 0.012 | 0.011 ± 0.031 | -0.0185 ± 0.0078 | -0.0275 ± 0.0064 | -0.0215 ± 0.0092 | 0 | -0.01 ± 0.0014 | 0.009 ± 0.023 | -0.031 ± 0.0099 | -0.033 ± 0.011 | -0.076 ± 0.016
HDF3CGF:CD106/VCAM-1 | 0.02 ± 0.033 | 0.0365 ± 0.00071 | 0.017 ± 0.052 | -0.0105 ± 0.013 | -0.052 ± 0.064 | -0.147 ± 0.027 | -0.364 ± 0.023 | 0.001 ± 0.017 | -0.03 ± 0.021 | -0.0385 ± 0.07 | -0.01 ± 0.027 | -0.0185 ± 0.011 | -0.036 ± 0.059 | -0.0535 ± 0.015 | 0.023 ± 0.048 | 0.0145 ± 0.043 | -0.02 ± 0.034 | -0.0225 ± 0.022 | -0.479 ± 0.037
HDF3CGF:CXCL8/IL-8 | 0.002 ± 0.0071 | -0.0015 ± 0.005 | 0.009 ± 0.0099 | -0.0045 ± 0.0035 | -0.0025 ± 0.023 | 0.004 ± 0.0085 | -0.204 ± 0.11 | 0.0005 ± 0.00071 | 0 ± 0.0071 | 0.004 ± 0.0014 | 0.005 ± 0.0057 | 0.0015 ± 0.00071 | 0.008 | -0.0045 ± 0.0064 | -0.002 ± 0.0014 | 0.0095 ± 0.032 | -0.0065 ± 0.0064 | -0.001 ± 0.0099 | 0.003 ± 0.0042
HDF3CGF:CXCL9/MIG | 0.0025 ± 0.0021 | 0.045 ± 0.011 | 0.0245 ± 0.056 | -0.024 ± 0.0042 | -0.0275 ± 0.016 | -0.203 ± 0.011 | -0.761 ± 0.11 | -0.0165 ± 0.005 | 0.005 ± 0.0057 | -0.023 ± 0.02 | -0.0085 ± 0.0035 | 0.0025 ± 0.0064 | -0.005 ± 0.037 | 0.0035 ± 0.0021 | 0.0025 ± 0.025 | -0.0105 ± 0.022 | -0.04 ± 0.016 | -0.074 ± 0.02 | -0.196 ± 0.0035
HDF3CGF:CXCL10/IP-10 | -0.01 ± 0.014 | 0.018 ± 0.027 | 0.021 ± 0.034 | -0.029 ± 0.021 | -0.0425 ± 0.005 | -0.216 ± 0.011 | -0.893 ± 0.047 | 0 ± 0.0085 | -0.01 ± 0.0085 | 0.0185 ± 0.026 | 0.0145 ± 0.016 | -0.004 ± 0.0042 | -0.004 ± 0.0099 | -0.0255 ± 0.019 | 0.0095 ± 0.0021 | 0.005 ± 0.018 | -0.019 ± 0.024 | -0.061 ± 0.016 | -0.3805 ± 0.00071
HDF3CGF:CXCL11/I-TAC | 0.0145 ± 0.016 | 0.027 ± 0.017 | 0.017 ± 0.013 | -0.0105 ± 0.025 | -0.0715 ± 0.013 | -0.111 ± 0.013 | -0.492 ± 0.028 | -0.0015 ± 0.011 | 0.003 ± 0.014 | -0.0265 ± 0.033 | -0.0035 ± 0.005 | 0.0045 ± 0.0078 | -0.0075 ± 0.0035 | -0.0425 ± 0.028 | -0.023 ± 0.093 | 0.004 ± 0.051 | 0.018 ± 0.013 | 0.0285 ± 0.018 | -0.149 ± 0.013
